In publication PMC6385104, “Momilactones A and B Are α-Amylase and α-Glucosidase Inhibitors” (Molecules, 2019):

Key:
α-amylase = biological target: T1, α-amylase (Aspergillus oryzae, UniProt P0C1B3); assay: biochemical; assay type: biochemical; conditions: for IC50: α-amylase from Aspergillus oryzae, starch substrate, 37 °C, pH 6.9, mean ± standard error, read-out: α-Amylase Inhibitory Assay (IC50) (converted)
T1 construct: purchased Sigma-Aldrich
Protocol: The inhibitory effect of MA and MB on α-amylase was assessed by starch-iodine method with a modified model as follows: in each well of a microplate (U-shape, Greiner Bio-one, NC, USA), 20 µL of each either MA or MB were pre-incubated with 20 µL of 1 U/mL α-amylase solution (from Aspergillus oryzae, Sigma-Aldrich, St. Louis, MO, USA) at 37 °C for 10 min. The reaction was initiated by pipetting 30 µL of starch (0.5% in deionized water) (soluble ACS reagent, Sigma-Aldrich, St. Louis, MO, USA). After 6 min incubation at 37 °C, an aliquot of 20 µL of hydrochloric acid (1 M) were added to stop reaction, followed by 120 µL of 0.25 mM aqueous iodine solution. The absorbance at 565 nm was read by a microplate reader (Multiskan^TM Microplate Spectrophotometer, Thermo Fisher Scientific, Osaka, Japan). The inhibitory activity of MA and MB on α-amylase was performed as the inhibition percentage that was calculated by the following formula:% inhibition = (A − C)/(B − C) × 100(2) where A is the absorbance of reaction with presence of MA or MB, B is the absorbance of reaction without enzyme, C is the absorbance of reaction with absence of the momilactones. […] Dilutions of test samples and dissolutions of enzyme used 20 mM sodium phosphate buffer (pH 6.9 comprising of 6 mM sodium chloride). α-Amylase solution and soluble starch solution were prepared and used on the day of experiment.

α-glucosidase = biological target: T2, α-glucosidase (Saccharomyces cerevisiae, UniProt P53341); assay: α-Glucosidase inhibition assay (pNPG substrate); assay type: biochemical; conditions: for suppressive property on α-glucosidase relative to acarbose (fold greater than acarbose): ratio of IC50 values versus acarbose; for IC50: α-glucosidase from Saccharomyces cerevisiae, pNPG substrate, 25 °C, pH 7, mean ± standard error, read-out: α-Glucosidase Inhibitory Assay (IC50) (converted)
T2 construct: purchased Sigma-Aldrich
T2 sequence (P53341 whole entry): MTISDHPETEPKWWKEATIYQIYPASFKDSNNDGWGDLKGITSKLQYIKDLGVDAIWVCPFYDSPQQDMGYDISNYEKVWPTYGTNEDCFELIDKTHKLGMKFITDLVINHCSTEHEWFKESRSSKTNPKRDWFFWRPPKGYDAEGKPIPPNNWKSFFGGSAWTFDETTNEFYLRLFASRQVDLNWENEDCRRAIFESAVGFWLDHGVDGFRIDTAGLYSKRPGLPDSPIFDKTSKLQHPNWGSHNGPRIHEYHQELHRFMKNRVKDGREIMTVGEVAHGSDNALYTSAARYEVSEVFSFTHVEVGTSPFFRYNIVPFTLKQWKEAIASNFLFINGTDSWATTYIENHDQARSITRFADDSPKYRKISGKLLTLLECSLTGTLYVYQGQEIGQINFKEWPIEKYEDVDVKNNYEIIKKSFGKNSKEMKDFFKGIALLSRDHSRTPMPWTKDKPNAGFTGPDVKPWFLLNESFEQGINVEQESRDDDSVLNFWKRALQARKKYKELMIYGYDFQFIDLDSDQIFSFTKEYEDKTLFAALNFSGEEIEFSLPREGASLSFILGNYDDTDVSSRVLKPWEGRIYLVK
Protocol: The anti-α-glucosidase activity of MA and MB was evaluated using a method as described previously with some alterations. In brief, an amount of 20 µL methanolic stock solution of MA and MB were pre-mixed with an equal volume of 0.1 M potassium phosphate buffer (pH 7) and 40 µL of α-glucosidase (from Saccharomyces cerevisiae, Sigma-Aldrich, St. Louis, MO, USA) enzyme solution (0.5 U/mL in 0.1 M potassium phosphate buffer, pH 7). After 6 min incubation at 25 °C, a 20 µL aliquot of 5 mM p-nitrophenyl-α-D-glucopyranoside (pNPG) substrate (in 0.1 M potassium phosphate buffer, pH 7) was added to each reaction and the mixture was incubated for another 8 min. Eventually, the reaction was terminated by adding 100 µL of 0.2 M Na2CO3, and absorbance was recorded at 405 nm. […] IC50 value was obtained by the same way as above.

[1] = ratio of IC50 values, MB versus MA

SMILES	IC50 (α-amylase) [µM]	suppressive property on α-glucosidase relative to acarbose (fold greater than acarbose) (α-glucosidase) [fold]	IC50 (α-glucosidase) [µM]	inhibitory activity on α-amylase of MB relative to MA (fold stronger) (α-amylase; [1]) [fold]	inhibitory activity on α-glucosidase of MB relative to MA (fold stronger) (α-glucosidase; [1]) [fold]
C=C[C@]1(C)CC[C@H]2C(=C[C@H]3OC(=O)[C@@]4(C)C(=O)CC[C@@]2(C)[C@@H]34)C1 [MA, momilactone A]	848	2.5	3150		
C=CC1(C)CCC2C(=CC3OC(=O)C4(C)C3C23CCC4(O)OC3)C1 (centres unmarked) [MB, momilactone B]	444	4.2	1850	1.8	1.6
